pIC50: −log10 of the molar value.
How the values were obtained:
[1] = test system: calcium; assay: Antagonism against calcium: inhibition of KCl-induced contraction of rat aorta ring specimens (Magnus tube, Test Example 1); design: species or system Male Wistar rats; conditions: inhibits 50% of the maximum contraction by KCl (10-60 mM); rat aorta rings, 37 °C; read-out: 50% inhibitory concentration
Procedure: Male Wistar rats (300-350g) were exsanguinated to death and submitted to thoracotomy to take off aortae. Ring specimens having a width of 3 to 4 mm were prepared from the aortae. The specimen was suspended in a Magnus tube which was filled with Krebs Henseleit liquid of 37°±0.5° C., aerated with a mixing gas (95% of O2 and 5% of CO2) flowing in the liquid. A load of approximately 2 g was given to the specimen, and a tension variation was isometrically recorded.

[2] = test system: vertebral artery; assay: Variation of vertebral artery blood flow amount in anesthetized dogs (Test Example 2); assay type: in vivo, crossbred adult dogs; conditions: i.v.
Procedure: After female and male crossbred adult dogs were put under anesthesia by using pentobarbital-Na, a cannula for blood pressure measuring and a cannula for drug dosing were set to the femoral artery and the femoral vein, respectively. The blood flow was measured using a probe fixed to the vertebral artery.

SMILES	pIC50 [1]	also measured
OC(CSc1ccccc1)CN1CCN(CCCC(c2ccccc2)c2ccccc2)CC1 (stereo not drawn) [Compound 51, 1-(4,4-Diphenylbutyl)-4-(2-hydroxy-3-phenylthiopropyl)piperazine]	6.85	
OC(CSc1ccccc1)CN1CCN(CC(c2ccccc2)c2ccccc2)CC1 (stereo not drawn) [Compound 47, 1-(2,2-Diphenylethyl)-4-(2-hydroxy-3-phenylthiopropyl)piperazine]	6.16	
Fc1ccc(C(c2ccc(F)cc2)N2CCN(C/C=C/c3ccccc3)CC2)cc1 [Furnarizine, furnarizine, reference compound]		Variation of the blood flow amount ([2]; 30 μg/kg): 8%; Variation of the blood flow amount ([2]; 100 μg/kg): 27%; Variation of the blood flow amount ([2]; 300 μg/kg): 44%; Variation of the blood flow amount ([2]; 1000 μg/kg): 55%
OC(CSc1ccc(Cl)cc1)CN1CCN(CCCC(c2ccc(F)cc2)c2ccc(F)cc2)CC1 (stereo not drawn) [Compound 31, 1-[4,4-Bis(4-fluorophenyl)butyl]-4-[3-(4-chlorophenylthio)-2-hydroxyproply]piperazine]	5.96	
COc1ccccc1CCNCC(O)CN1CCN(C(c2ccccc2)c2ccccc2)CC1 (stereo not drawn) [Compound 4, 1-Diphenylmethyl-4-[2-hydroxy-3-{2-(2-methoxyphenyl)ethylamino}propyl]piperazine]	5.89	
Nc1ccc(SCC(O)CN2CCN(CCCC(c3ccc(F)cc3)c3ccc(F)cc3)CC2)cc1 (stereo not drawn) [Compound 22, 1-[(4-Aminophenylthio)-2-hydroxypropyl]-4-[4,4bis(4-fluorophenyl)butyl]piperazine]	6.20	
OC(CSc1ccc(F)cc1)CN1CCN(CCCC(c2ccc(F)cc2)c2ccc(F)cc2)CC1 (stereo not drawn) [Compound 37, 1-[4,4-Bis(4-fluorophenyl)butyl]-4-[3-(4-fluorophenylthio)-2-hydroxypropyl]piperazine]	6.85	
OC(CSc1ccccc1)CN1CCN(C(c2ccc(F)cc2)c2ccc(F)cc2)CC1 (stereo not drawn) [Compound 53, 1-[Bis(4-fluorophenyl)methyl]-4-(2-hydroxy-3-phenylthiopropyl)piperazine]	5.92	
Cc1ccc(SCC(O)CN2CCN(CCCC(c3ccc(F)cc3)c3ccc(F)cc3)CC2)cc1 (stereo not drawn) [Compound 20, 1-[4,4-Bis(4-fluorophenyl)butyl]-4-[2-hydroxy-3-(4methylphenylthio)propyl]piperazine]	6.57	
OC(CNCCc1ccccc1)CN1CCN(C(c2ccccc2)c2ccccc2)CC1 (stereo not drawn) [Compound 3, 1-Diphenylmethyl-4-[2-hydroxy-3-(2-phenylethylamino)propyl]piperazine]	5.89	
COc1ccc(SCC(O)CN2CCN(C(c3ccc(F)cc3)c3ccc(F)cc3)CC2)cc1 (stereo not drawn) [Compound 55, 1-[Bis (4-fluorophenyl)methyl]-4-[2-hydroxy-3-(4-methoxyphenylthio)propyl]piperazine]	5.89	
COc1ccc(SCC(O)CN2CCN(CCCC(c3ccc(F)cc3)c3ccc(F)cc3)CC2)cc1 (stereo not drawn) [Compound 41, 1-[4,4-Bis(4-fluorophenyl)butyl]-4-[2-hydroxy-3-(4-methoxyphenylthio)propyl]piperazine]	6.37	Variation of the blood flow amount ([2]; 10 μg/kg): 12%; Variation of the blood flow amount ([2]; 30 μg/kg): 25%; Variation of the blood flow amount ([2]; 100 μg/kg): 66%; Variation of the blood flow amount ([2]; 300 μg/kg): 87%
COc1cccc(SCC(O)CN2CCN(CCCC(c3ccc(F)cc3)c3ccc(F)cc3)CC2)c1 (stereo not drawn) [Compound 43, 1-[4,4-Bis(4-fluorophenyl)butyl]-4-[2-hydroxy-3-(3-methoxyphenylthio)propyl]piperazine]	6.55	Variation of the blood flow amount ([2]; 10 μg/kg): 7%; Variation of the blood flow amount ([2]; 30 μg/kg): 15%; Variation of the blood flow amount ([2]; 100 μg/kg): 55%; Variation of the blood flow amount ([2]; 300 μg/kg): 131%
COc1ccccc1SCC(O)CN1CCN(C(c2ccc(F)cc2)c2ccc(F)cc2)CC1 (stereo not drawn) [Compound 45, 1-[Bis(4-fluorophenyl)methyl]-4-[2-hydroxy-3-(2methoxyphenylthio)propyl]piperazine]	5.96	
CC(=O)OC(CSc1ccccc1)CN1CCN(CCCC(c2ccc(F)cc2)c2ccc(F)cc2)CC1 (stereo not drawn) [Compound 14, 1-(2-Acetoxy-3-phenylthiopropyl)-4-[4,4-bis(4-fluorophenyl)butyl]piperazine.2HCl]	6.55	
COc1ccc(CCNCC(O)CN2CCN(C(c3ccccc3)c3ccccc3)CC2)cc1OC (stereo not drawn) [Compound 5, 1-[3-{2-(3,4-Dimethoxyphenyl)ethylamino}-2-hydroxypropyl]-4-diphenylmethylpiperazine]	5.92	

Continued, in another order:

pIC50 [1]	SMILES	also measured
5.85	OC(CSCc1ccccc1)CN1CCN(C(c2ccc(F)cc2)c2ccc(F)cc2)CC1 (stereo not drawn) [Compound 24, 1-[Bis(4-fluorophenyl)methyl]-4-(2-hydroxy-3-phenylmethylthiopropyl)piperazine]	
6.47	OC(CSc1cccc2ccccc12)CN1CCN(CCCC(c2ccc(F)cc2)c2ccc(F)cc2)CC1 (stereo not drawn) [Compound 57, 1-[4,4-Bis(4-fluorophenyl)butyl]-4-[2-hydroxy-3-(1-naphthylthio)propyl]piperazine]	
6.70	COC(CSc1ccccc1)CN1CCN(CCCC(c2ccc(F)cc2)c2ccc(F)cc2)CC1 (stereo not drawn) [Compound 12, 1-[4,4-Bis(4-fluorophenyl)butyl]-4-(2-methoxy-3-phenylthiopropyl)piperazine.2HCl]	
6.80	OC(CSc1ccccc1)CN1CCN(CCCC(c2ccc(F)cc2)c2ccc(F)cc2)CC1 (stereo not drawn) [Compound 10, 1-[4,4-Bis(4-fluorophenyl)butyl]-4-(2-hydroxy-3-phenylthiopropyl)piperazine.2HCl]	Variation of the blood flow amount ([2]; 10 μg/kg): 18%; Variation of the blood flow amount ([2]; 30 μg/kg): 14%; Variation of the blood flow amount ([2]; 100 μg/kg): 80%; Variation of the blood flow amount ([2]; 300 μg/kg): 125%
6.66	OC(CNc1ccccc1)CN1CCN(CCCC(c2ccc(F)cc2)c2ccc(F)cc2)CC1 (stereo not drawn) [Compound 6, 1-[4,4-Bis(4-fluorophenyl)butyl]-4-(2-hydroxy-3-phenylaminopropyl)piperazine]	
6.89	O[C@@H](CSc1ccccc1)CN1CCN(CCCC(c2ccc(F)cc2)c2ccc(F)cc2)CC1 [Compound 18, (R)-(+)-1-[4,4-Bis(4-fluorophenyl)butyl]-4-(2-hydroxy-3-phenylthiopropyl)piperazine]	
6.80	COc1ccccc1SCC(O)CN1CCN(CCCC(c2ccc(F)cc2)c2ccc(F)cc2)CC1 (stereo not drawn) [Compound 35, 1-[4,4-Bis(4-fluorophenyl)butyl]-4-[2-hydroxy-3-(2-methoxyphenylthio)propyl]piperazine]	Variation of the blood flow amount ([2]; 10 μg/kg): 13%; Variation of the blood flow amount ([2]; 30 μg/kg): 26%; Variation of the blood flow amount ([2]; 100 μg/kg): 66%; Variation of the blood flow amount ([2]; 300 μg/kg): 87%
6.47	Oc1ccc(SCC(O)CN2CCN(CCCC(c3ccc(F)cc3)c3ccc(F)cc3)CC2)cc1 (stereo not drawn) [Compound 39, 1-[4,4-Bis(4-fluorophenyl)butyl]-4-[2-hydroxy-3-(4-hydroxyphenylthio)propyl]piperazine]	
6.96	OC(CSCc1ccccc1)CN1CCN(CCCC(c2ccc(F)cc2)c2ccc(F)cc2)CC1 (stereo not drawn) [Compound 28, 1-[4,4-Bis(4-fluorophenyl)butyl]-4-(2-hydroxy-3-phenylmethylthiopropyl)piperazine]	
7.00	O[C@H](CSc1ccccc1)CN1CCN(CCCC(c2ccc(F)cc2)c2ccc(F)cc2)CC1 [Compound 16, (S)-(-)-1-[4,4-Bis(4-fluorophenyl)butyl]-4-(2-hydroxy-3-phenylthiopropyl)piperazine]	

From patent US5391552A, “Diphenylpiperazine derivative and drug for circulatory organ containing the same” (Pola Chemical Industries, Inc., priority 1990, dated 1995)
